The results in this text go back to ChEMBL document CHEMBL1201862, “PubChem BioAssay data set” (2004).

Among the test systems are 786-0; CAKI-1; CCRF-CEM; COLO 205; EKVX; HCC 2998; HCT-15; KM12; MOLT-4; OVCAR-5; SF-268; SNB-19; U-251; UO-31; UACC-62.
Holding throughout (test): growth of human tumour cells (NCI), 48 h

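Growth conditions: 96-well plates. Treatment: test compound, 48 hours, 5 concentrations. Analysis: linear interpolation between bracketing concentrations; unreached endpoints set to highest concentration. GI50 = concentration required for 50% inhibition of growth.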 Active and inactive are the calls of the source. Cut-off read from the data, not from the text of the source: active = GI50 up to about 1.1 µM and inactive = higher.

`O=C1CCC(=O)c2ccccc2N1`: the GI50 with 786-0, in the test with CAKI-1, in the test with CCRF-CEM, with COLO 205, in the test on EKVX and in the test with HCC 2998 was > 100 µM (inactive) in each case. The GI50 with HCT-15 is more than 100 µM; with KM12, > 100 µM (inactive); with MOLT-4, > 100 µM (inactive); in the test with OVCAR-5, > 100 µM (inactive); in the test with SF-268, > 100 µM (inactive); in the test on SNB-19, > 100 µM (inactive). For the same compound, the GI50 in the test on U-251 and with UO-31 was > 100 µM (inactive) each time.
Take `O=C1c2ccccc2C(=O)N1C/C=N/NS(=O)(=O)c1ccc(F)cc1`: the GI50 in the test with 786-0, in the test with CAKI-1, in the test with CCRF-CEM, in the test on COLO 205, in the test with EKVX and in the test on HCC 2998 was > 100 µM (inactive) each time. Moreover, the GI50 in the test on HCT-15 is more than 100 µM; in the test with KM12, > 100 µM (inactive); in the test on MOLT-4 it was > 100 µM (inactive); with SF-268, > 100 µM (inactive); in the test on SNB-19 it was > 100 µM (inactive); in the test with U-251, > 100 µM (inactive). For the same compound, the GI50 in the test with UACC-62 and with UO-31 was > 100 µM (inactive) in each case.
For `Cc1ccc(S(=O)(=O)N2CCC3(C(/C=C/c4ccccc4)=Nc4ccccc43)C2c2ccccc2)cc1` (centres undefined), the GI50 with 786-0, in the test on CAKI-1, in the test with CCRF-CEM, in the test with COLO 205, in the test with EKVX and in the test on HCC 2998 was > 100 µM (inactive) in each case. The GI50 with HCT-15 is more than 100 µM; with KM12 it was > 100 µM (inactive); in the test on OVCAR-5, > 100 µM (inactive); in the test with SF-268 it was > 100 µM (inactive); in the test with SNB-19 it was > 100 µM (inactive); in the test on U-251, > 100 µM (inactive). For the same compound, the GI50 in the test on UACC-62 is > 100 µM (inactive); in the test with UO-31, 61.7 µM (inactive).
Regarding `N#C/C(=C1\OC(=N)C(c2ccc(Cl)cc2)=C1O)c1ccc(Cl)cc1`, the GI50 is 16 µM (inactive) in the test on 786-0; 17.3 µM (inactive) with CAKI-1; 12.8 µM (inactive) in the test on CCRF-CEM; 18.8 µM (inactive) in the test with COLO 205; 17.7 µM (inactive) with EKVX; 17.1 µM (inactive) in the test with HCC 2998. In addition, the GI50 in the test with KM12 is 16.6 µM (inactive); in the test on MOLT-4, 17.3 µM (inactive); with OVCAR-5 it was 2.99 µM (inactive); with SF-268, 36.6 µM (inactive); with SNB-19, 19.6 µM (inactive); with U-251, 15.3 µM (inactive). Also, the GI50 is 14.2 µM (inactive) in the test with UACC-62 and 16.2 µM (inactive) in the test on UO-31.
Turning to `COc1ccc2c(c1)[n+]([O-])c(C(=O)C/C(=N/NC(=O)C[N+](C)(C)C)C(=O)Nc1cccc(C)c1C)c(C)[n+]2[O-]`, the GI50 in the test with 786-0 was > 100 µM (inactive); with CAKI-1 it was > 100 µM (inactive); in the test with COLO 205, > 100 µM (inactive); in the test with EKVX it was > 100 µM (inactive); in the test on HCC 2998, > 100 µM (inactive); in the test with HCT-15, more than 100 µM. Also, the GI50 was 6.34 µM (inactive) with KM12; 67.1 µM (inactive) in the test on OVCAR-5; > 100 µM (inactive) with SF-268; > 100 µM (inactive) in the test on SNB-19; > 100 µM (inactive) with U-251; > 100 µM (inactive) in the test on UACC-62. Further, in the test with UO-31, the GI50 is > 100 µM (inactive).
